Laboratory results reported in patent US12116388B2, “Amylin receptor agonists” (Novo Nordisk A/S, priority 2022, dated 2024).
Starred links: 1 amine or outer side, 2 acyl side, 3 side chain; linkers in the order of their positions; H or OH if unused. Residues, ends and D or L forms follow the SMILES beside them. Groups on a side chain read outwards from the residue. *: point of attachment. C18 diacid = O=C(O)CCCCCCCCCCCCCCCCC(=O)*; γGlu = O=C(O)[C@H](CCC(=O)[*:2])N[*:1]

System: Sprague Dawley (SD) rats
Test: Acute food intake in ad libitum fed rat model
Type: in vivo
Conditions: single s.c. administration, negative value = reduced food intake
Description: Lyophilised compound was dissolved in vehicle, 8 mM phosphate, 250 mM glycerol, 0.007% polysorbate 20, and pH was adjusted to 7.4 with 1N NaOH.
Normal weight Sprague Dawley (SD) rats from Taconic Europe, Denmark, were used for the acute food intake studies. The purpose of these studies was to test in vivo effect on food intake and to provide an indication of the compounds' duration of action. Experiments were conducted with permission from the Danish Animal Experiments Inspectorate and were performed in accordance with the guidelines of the Danish legislation governing animal experimentation (1987) as well as the National Institutes of Health (publication number 85-23) and the European Convention for the Protection of Vertebrate Animals used for Experimental and other Scientific Purposes (Council of Europe No 123, Strasbourg 1985).
Prior to study start, rats were acclimatized to the experimental settings for 14 days. During this period, the animals were handled at least 2 times. Immediately upon arrival, rats were put on a reversed light cycle (dark from 10 am-10 pm or 11 am-11 pm) and were transferred into one of three following food intake measuring systems: FeedWin, BioDaq or HM2. Rats were single housed in the FeedWin and BioDaq system and were housed three a cage in the HM2 system (rats were in this case ID-chipped). During the acclimatization period, in which the rats get used to the new light cycle and diet, the animals had free access to food and water. […] Each amylin analogue was tested in a group of 5-6 rats. A vehicle group of 5-6 rats was included in each experiment and were used as reference point. […] The time of dosing was recorded for each rat.
After dosing, rats were returned to their home cages, where they had access to food and water. Food consumption was recorded individually and continuously by on-line registration for up to 72 h post dosing. At the end of the experiment, body weight was measured again, and animals were euthanized by CO2 overdose.

Compound: CC[C@H](C)[C@H](NC(=O)[C@H](CCCCNC(=O)CC[C@H](NC(=O)CCCCCCCCCCCCCCCCC(=O)O)C(=O)O)NC(=O)CNC(=O)[C@H](Cc1ccccc1)NC(=O)[C@H](CC(N)=O)NC(=O)[C@H](CC(=O)O)NC(=O)[C@H](CO)NC(=O)[C@H](CO)NC(=O)[C@H](Cc1c[nH]cn1)NC(=O)[C@H](Cc1c[nH]cn1)NC(=O)[C@H](CC(C)C)NC(=O)[C@H](Cc1ccccc1)NC(=O)[C@H](CCC(=O)O)NC(=O)[C@H](C)NC(=O)[C@H](CC(C)C)NC(=O)[C@H](CCCNC(=N)N)NC(=O)[C@H](C)NC(=O)[C@@H](NC(=O)[C@H](CCC(N)=O)NC(=O)[C@H](C)NC(=O)[C@@H](NC(=O)[C@H](CO)NC(=O)[C@H](CC(C)C)NC(=O)[C@H](Cc1c[nH]cn1)NC(=O)[C@H](CO)NC(=O)[C@H](C)NC(C)=O)[C@@H](C)O)[C@@H](C)O)C(=O)N[C@@H](CC(C)C)C(=O)N1CCC[C@H]1C(=O)N1CCC[C@H]1C(=O)N[C@H](C(=O)N[C@@H](CC(=O)O)C(=O)N[C@H](C(=O)NCC(=O)N[C@@H](CO)C(=O)N[C@@H](CC(N)=O)C(=O)N[C@H](C(=O)N1CCC[C@H]1C(N)=O)[C@@H](C)O)C(C)C)[C@@H](C)O [Compound 41, N^1-acetyl,N{Epsilon-25}-[(4S)-4-carboxy-4-(17-carboxyheptadecanoylamino)butanoyl]-[Ala1,Ser2,His3,Leu4,Ser5,Ala7,Gln8,Ala10,Glu14,His17,Asp21,Lys25,Pro28,Pro29,Asp31,Pro37]-human amylin] (Ac-ASHLSTAQTARLAEFLHHSSDNFGK([γGlu-C18 diacid])ILPPTDVGSNTP-NH2)
- Food intake relative to vehicle (%) 0-24 hr, 3 nmol/kg (0-24 hr): −88%
- Food intake relative to vehicle (%) 24-48 hr, 3 nmol/kg (24-48 hr): −76%
- Food intake relative to vehicle (%) 48-72 hr, 3 nmol/kg (48-72 hr): −15%
